Data as given in ChEMBL document CHEMBL3727364, “Resorcinol n-aryl amide compounds, for use as pyruvate dehydrogenase kinase inhibitors” (2015).

Molecular target: [Pyruvate dehydrogenase (acetyl-transferring)] kinase isozyme 1, mitochondrial (Homo sapiens, UniProt Q15118)
Experiment: Binding affinity to pyruvate dehydrogenase kinase 1 (unknown origin) incubated for 90 mins by VER-00160364 probe based fluorescence polarization assay

Sequence of [Pyruvate dehydrogenase (acetyl-transferring)] kinase isozyme 1, mitochondrial (Q15118 whole entry): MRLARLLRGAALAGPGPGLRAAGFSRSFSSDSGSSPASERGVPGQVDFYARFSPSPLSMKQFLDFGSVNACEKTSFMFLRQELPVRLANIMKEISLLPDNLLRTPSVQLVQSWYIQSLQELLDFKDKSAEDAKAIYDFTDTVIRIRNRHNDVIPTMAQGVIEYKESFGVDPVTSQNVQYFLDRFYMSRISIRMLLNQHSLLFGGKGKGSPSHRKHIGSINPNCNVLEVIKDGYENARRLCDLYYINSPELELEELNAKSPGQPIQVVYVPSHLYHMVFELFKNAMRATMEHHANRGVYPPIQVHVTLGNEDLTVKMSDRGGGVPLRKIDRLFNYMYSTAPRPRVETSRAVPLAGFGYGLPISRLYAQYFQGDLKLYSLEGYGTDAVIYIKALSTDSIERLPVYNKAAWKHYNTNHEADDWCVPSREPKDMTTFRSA

For `Cc1cc(S(=O)(=O)N2CC(F)(F)C2)cnc1-c1ccc(N(Cc2ccsc2)C(=O)c2ccc(O)cc2O)cc1`, the IC50 was 100 nM.
Compound `Cc1cnc(N(C)C)nc1-c1ccc(N(Cc2ccccc2)C(=O)c2ccc(O)cc2O)cc1` has an IC50 of 100 nM.
Compound `Cc1cc(N(Cc2ccccc2)C(=O)c2ccc(O)cc2O)ccc1-c1nc2cc(F)ccc2cc1C` has an IC50 of 100 nM.
In the case of `Cc1cc(C(=O)Nc2ccc(N(Cc3ccccc3)C(=O)c3ccc(O)cc3O)cc2)no1`, the IC50 is reported as 10000 nM.
For `CCCc1cncnc1-c1ccc(N(Cc2cccnc2)C(=O)c2ccc(O)cc2O)cc1`, the IC50 was 100 nM.
In the case of `O=C(c1ccc(O)cc1O)N(Cc1ccccc1)c1ccccc1`, the IC50 is reported as 1000 nM.
Compound `Cc1csc2ncnc(-c3ccc(N(Cc4ccsc4)C(=O)c4ccc(O)cc4O)cc3)c12` has an IC50 of 100 nM.
With `N#Cc1cncnc1-c1ccc(N(Cc2cccnc2)C(=O)c2ccc(O)cc2O)cc1` the IC50 was 100 nM.
With `O=C(c1ccc(O)cc1O)N(Cc1ccccc1)c1ccc(-c2cnc3ccccc3n2)cc1` the IC50 was 10000 nM.
In the case of `O=C(c1ccc(O)cc1O)N(Cc1cccnc1)c1ccc(-c2ccc(Cl)cc2Cl)cc1`, the IC50 is reported as 1000 nM.
`CN(C)C(=O)c1ccc(N(Cc2ccc(F)cc2)C(=O)c2cc(Cl)c(O)cc2O)cc1` was tested, and the IC50 was 100 nM.
`Nc1nccc(-c2ccc(N(Cc3cccnc3)C(=O)c3ccc(O)cc3O)cc2)n1` gave an IC50 of 1000 nM.
In the case of `Cc1c(Cl)nc(Cl)nc1-c1ccc(N(Cc2ccccc2)C(=O)c2ccc(O)cc2O)cc1`, the IC50 is reported as 1000 nM.
`O=C(c1ccc(O)cc1O)N(Cc1ccccc1)c1ccc(-c2nc(Cl)nn3cccc23)cc1` showed an IC50 of 1000 nM.
`O=C(c1ccc(O)cc1O)N(Cc1cccnc1)c1ccc(-c2nc3ccc(Cl)cc3cc2CO)cc1` showed an IC50 of 10 nM.
`COc1cc2ncnc(-c3ccc(N(Cc4cccnc4)C(=O)c4ccc(O)cc4O)cc3)c2cc1OC` gave an IC50 of 1000 nM.
In the case of `O=C(c1ccc(O)cc1O)N(Cc1ccccc1)c1ccc(-c2ccc(-n3ccnc3)nn2)cc1`, the IC50 is reported as 100 nM.
For `O=C(c1ccc(O)cc1O)N(Cc1ccsc1)c1ccc(-c2nc(Cl)nc3[nH]ccc23)cc1`, the IC50 was 1000 nM.
For `COc1ccc(CNC(=O)c2ccc(N(Cc3ccccc3)C(=O)c3ccc(O)cc3O)cc2)cc1`, the IC50 was 1000 nM.
Compound `Nc1nccc(-c2ccc(N(Cc3ccsc3)C(=O)c3ccc(O)cc3O)cc2)n1` has an IC50 of 1000 nM.
Compound `O=C(c1ccc(O)cc1O)N(Cc1ccccc1)c1ccc(-c2ncccc2CO)cc1` has an IC50 of 1000 nM.
`Cc1cc(S(=O)(=O)NCc2ccccc2)cnc1-c1ccc(N(Cc2ccccc2)C(=O)c2ccc(O)cc2O)cc1` showed an IC50 of 100 nM.
Work on `Cc1cc(S(=O)(=O)N2CCCCC2)cnc1-c1ccc(N(Cc2ccsc2)C(=O)c2ccc(O)cc2O)cc1` yielded an IC50 of 10 nM.
With `O=C(c1ccc(O)cc1O)N(Cc1ccsc1)c1ccc(-c2cnc3ccccc3n2)cc1` the IC50 was 10000 nM.
`CSc1nc(-c2ccc(N(Cc3ccccc3)C(=O)c3ccc(O)cc3O)cc2)c2cc[nH]c2n1` gave an IC50 of 1000 nM.
With `Cc1cccnc1-c1ccc(N(Cc2ccccc2)C(=O)c2ccc(O)cc2O)cc1` the IC50 was 1000 nM.
`Cc1cc(S(=O)(=O)N2CCC(F)(F)CC2)cnc1-c1ccc(N(Cc2cccnc2)C(=O)c2ccc(O)cc2O)cc1` was tested, and the IC50 was 10 nM.
Work on `Cc1cc(N(Cc2ccccc2)C(=O)c2ccc(O)cc2O)ccc1-c1nc(Cl)ncc1C` yielded an IC50 of 1000 nM.
Work on `Cc1cc(S(=O)(=O)NCc2ccncc2)cnc1-c1ccc(N(Cc2cccnc2)C(=O)c2ccc(O)cc2O)cc1` yielded an IC50 of 10 nM.
`Cc1cnc(Cl)nc1-c1ccc(N(Cc2cccc(Cn3ccnc3)c2)C(=O)c2cc(Cl)c(O)cc2O)cc1` was tested, and the IC50 was 10 nM.
`O=C(c1ccc(O)cc1O)N(Cc1ccsc1)c1ccc(-c2ccncc2C(F)(F)F)cc1` showed an IC50 of 1000 nM.
With `Cc1cc(Cl)nnc1-c1ccc(N(Cc2ccccc2)C(=O)c2ccc(O)cc2O)cc1` the IC50 was 100 nM.
`CC(=O)NCCNS(=O)(=O)c1cnc(-c2ccc(N(Cc3cccnc3)C(=O)c3ccc(O)cc3O)cc2)c(C)c1` showed an IC50 of 10 nM.
For `CNc1nnc(-c2ccc(N(Cc3cccnc3)C(=O)c3ccc(O)cc3O)cc2)c2ccccc12`, the IC50 was 100 nM.
With `O=C(c1ccc(O)cc1O)N(Cc1ccsc1)c1ccc(-c2ncccc2CO)cc1` the IC50 was 100 nM.
`CCOC(=O)c1nc(-c2ccc(N(Cc3ccccc3)C(=O)c3ccc(O)cc3O)cc2)c2ccccc2n1` showed an IC50 of 10000 nM.
`Cc1cncnc1-c1ccc(N(Cc2ccccc2)C(=O)c2ccc(O)cc2O)cc1` showed an IC50 of 100 nM.
Work on `CNC(=O)c1ccc(N(Cc2cccnc2)C(=O)c2ccc(O)cc2O)cc1` yielded an IC50 of 1000 nM.
`CCCc1cncnc1-c1ccc(N(Cc2ccccc2)C(=O)c2ccc(O)cc2O)cc1` showed an IC50 of 1000 nM.
For `Cc1cnc(Cl)nc1-c1ccc(N(Cc2ccccc2)C(=O)c2ccc(O)cc2O)cc1`, the IC50 was 10 nM.
For `Cc1cccnc1-c1ccc(N(Cc2cccnc2)C(=O)c2cc(Cl)c(O)cc2O)cc1`, the IC50 was 10 nM.
`Cc1cc(S(=O)(=O)N2CCN(C)CC2)cnc1-c1ccc(N(Cc2ccccc2)C(=O)c2ccc(O)cc2O)cc1` gave an IC50 of 10 nM.
Work on `NC(=O)c1nc(-c2ccc(N(Cc3cccnc3)C(=O)c3ccc(O)cc3O)cc2)c2ccccc2n1` yielded an IC50 of 100 nM.
For `Cc1cc(S(=O)(=O)NCCN(C)C)cnc1-c1ccc(N(Cc2cccnc2)C(=O)c2ccc(O)cc2O)cc1`, the IC50 was 100 nM.
Compound `CN(C)C(=O)c1ccc(N(Cc2ccccc2)C(=O)c2ccc(O)cc2O)cc1` has an IC50 of 100 nM.
In the case of `O=C(c1ccc(O)cc1O)N(Cc1cccnc1)c1ccc(-c2nc(Cl)nc3[nH]ccc23)cc1`, the IC50 is reported as 100 nM.
In the case of `Cc1c(Cl)nc(Cl)nc1-c1ccc(N(Cc2cccnc2)C(=O)c2ccc(O)cc2O)cc1`, the IC50 is reported as 10 nM.
`CCOC(=O)c1nc(C)nc(-c2ccc(N(Cc3cccnc3)C(=O)c3ccc(O)cc3O)cc2)c1C` showed an IC50 of 100 nM.
`CN(Cc1cccc2ccccc12)C(=O)c1ccc(N(Cc2cccnc2)C(=O)c2ccc(O)cc2O)cc1` was tested, and the IC50 was 10 nM.
`Cc1cnc(Cl)nc1-c1ccc(N(Cc2ccsc2)C(=O)c2ccc(O)cc2O)cc1` was tested, and the IC50 was 100 nM.
With `O=C(Cc1ccccc1)Nc1ccc(N(Cc2ccccc2)C(=O)c2ccc(O)cc2O)cc1` the IC50 was 1000 nM.
In the case of `CN(C)C(=O)c1ccc(N(Cc2ccn(C)n2)C(=O)c2cc(Cl)c(O)cc2O)cc1`, the IC50 is reported as 10000 nM.
For `Nc1ccc(-c2ccc(N(Cc3ccccc3)C(=O)c3ccc(O)cc3O)cc2)nn1`, the IC50 was 100 nM.
`C[C@@H](c1ccccc1)N(C(=O)c1cc(Cl)c(O)cc1O)c1ccc(C(=O)N(C)C)cc1` was tested, and the IC50 was 1000 nM.
For `Cc1cnc(Cl)nc1-c1ccc(N(Cc2ccccc2)C(=O)c2cc(Cl)c(O)cc2O)cc1`, the IC50 was 10 nM.
With `CN(Cc1ccc2ncccc2c1)C(=O)c1ccc(N(Cc2cccnc2)C(=O)c2ccc(O)cc2O)cc1` the IC50 was 100 nM.
`CNS(=O)(=O)c1cnc(-c2ccc(N(Cc3cccnc3)C(=O)c3ccc(O)cc3O)cc2)c(C)c1` gave an IC50 of 10 nM.
`COc1ccc(-c2ccc(N(Cc3cccnc3)C(=O)c3ccc(O)cc3O)cc2)c(Cl)c1` gave an IC50 of 1000 nM.
`Cc1cc2ccccc2nc1-c1ccc(N(Cc2ccsc2)C(=O)c2ccc(O)cc2O)cc1` gave an IC50 of 100 nM.
Work on `Cc1nc(N(C)C)nc(-c2ccc(N(Cc3cccnc3)C(=O)c3ccc(O)cc3O)cc2)c1C` yielded an IC50 of 1000 nM.
`O=C(c1ccc(N(Cc2cccnc2)C(=O)c2ccc(O)cc2O)cc1)N1CCC(O)CC1` showed an IC50 of 100 nM.
`O=C(c1ccc(O)cc1O)N(Cc1cccnc1)c1ccc(-c2nc(-c3ccsc3)nc3ccccc23)cc1` gave an IC50 of 1000 nM.
With `Cc1cc2ccccc2nc1-c1ccc(N(Cc2cccnc2)C(=O)c2ccc(O)cc2O)cc1` the IC50 was 10 nM.
Compound `CSc1ccc(CN(C(=O)c2ccc(O)cc2O)c2ccc(-c3nc4ccccc4cc3C)cc2)cc1` has an IC50 of 100 nM.
In the case of `Cc1cc2ccc(F)cc2nc1-c1ccc(N(Cc2ccccc2)C(=O)c2ccc(O)cc2O)cc1F`, the IC50 is reported as 100 nM.
In the case of `Cc1cc(S(=O)(=O)N2CCN(C)CC2)cnc1-c1ccc(N(Cc2cccnc2)C(=O)c2ccc(O)cc2O)cc1`, the IC50 is reported as 10 nM.
`O=C(c1ccc(O)cc1O)N(Cc1cccnc1)c1ccc(-c2cnc3ccccc3n2)cc1` gave an IC50 of 1000 nM.
`O=C(Nc1ccc(N(Cc2ccccc2)C(=O)c2ccc(O)cc2O)cc1)c1cc2ccccc2[nH]1` gave an IC50 of 10000 nM.
Work on `CC(=O)N1CCN(S(=O)(=O)c2cnc(-c3ccc(N(Cc4ccccc4)C(=O)c4ccc(O)cc4O)cc3)c(C)c2)CC1` yielded an IC50 of 10 nM.
`O=C(c1ccc(O)cc1O)N(Cc1ccccc1)c1ccc(-c2nc3ccc(Cl)cc3cc2CO)cc1` showed an IC50 of 1000 nM.
In the case of `N#Cc1cncnc1-c1ccc(N(Cc2ccccc2)C(=O)c2ccc(O)cc2O)cc1`, the IC50 is reported as 1000 nM.
In the case of `Cc1ccc(S(N)(=O)=O)nc1-c1ccc(N(Cc2ccsc2)C(=O)c2ccc(O)cc2O)cc1`, the IC50 is reported as 100 nM.
Work on `CN(C)C(=O)c1ccc(N(Cc2cccc3c2cnn3C)C(=O)c2ccc(O)cc2O)cc1` yielded an IC50 of 100 nM.
For `Cc1cncnc1-c1ccc(N(Cc2cccnc2)C(=O)c2ccc(O)cc2O)cc1`, the IC50 was 100 nM.
`Cc1cc(S(=O)(=O)NCc2ccccn2)cnc1-c1ccc(N(Cc2cccnc2)C(=O)c2ccc(O)cc2O)cc1` gave an IC50 of 10 nM.
`Cc1nc(-c2ccc(N(Cc3ccccc3)C(=O)c3ccc(O)cc3O)cc2C)c2ccccc2n1` gave an IC50 of 100 nM.
For `Cc1cc2cc(F)ccc2nc1-c1ccc(N(Cc2ccsc2)C(=O)c2ccc(O)cc2O)cc1`, the IC50 was 1000 nM.
Compound `CN(Cc1ccnc2ccccc12)C(=O)c1ccc(N(Cc2cccnc2)C(=O)c2ccc(O)cc2O)cc1` has an IC50 of 100 nM.
In the case of `O=C(c1ccc(O)cc1O)N(Cc1ccccc1)c1ccc(-c2ccc(NC3CC3)nn2)cc1`, the IC50 is reported as 100 nM.
`O=C(NCc1ccccc1)Nc1ccc(N(Cc2ccccc2)C(=O)c2ccc(O)cc2O)cc1` was tested, and the IC50 was 1000 nM.
Compound `CN(Cc1ccc2ccccc2n1)C(=O)c1ccc(N(Cc2ccccc2)C(=O)c2ccc(O)cc2O)cc1` has an IC50 of 100 nM.
`Cc1ncc(C)c(-c2ccc(N(Cc3ccccc3)C(=O)c3cc(Cl)c(O)cc3O)cc2)n1` was tested, and the IC50 was 100 nM.
`O=C(c1ccc(O)cc1O)N(Cc1ccccc1)c1ccc(-c2nc3ccccc3nc2C(F)(F)F)cc1` was tested, and the IC50 was 1000 nM.
In the case of `CC(=O)N1CCN(S(=O)(=O)c2cnc(-c3ccc(N(Cc4cccnc4)C(=O)c4ccc(O)cc4O)cc3)c(C)c2)CC1`, the IC50 is reported as 10 nM.
In the case of `O=C(c1ccc(O)cc1O)N(Cc1ccccc1)c1ccc(-c2ccc(N3CCCC3)nn2)cc1`, the IC50 is reported as 1000 nM.
`Cc1sc2ncnc(-c3ccc(N(Cc4ccsc4)C(=O)c4ccc(O)cc4O)cc3)c2c1C` showed an IC50 of 1000 nM.
In the case of `Cc1cnc(Cl)nc1-c1ccc(N(Cc2ccccc2)C(=O)c2ccc(O)cc2O)cc1F`, the IC50 is reported as 100 nM.
`CN(Cc1ccc2ccccc2c1)C(=O)c1ccc(N(Cc2ccccc2)C(=O)c2ccc(O)cc2O)cc1` showed an IC50 of 10000 nM.
`O=C(c1ccc(O)cc1O)N(Cc1cccnc1)c1ccc(-c2nc3ccccc3o2)cc1` showed an IC50 of 1000 nM.
Work on `Cc1cc2ccccc2nc1-c1ccc(N(Cc2cccc(F)c2)C(=O)c2ccc(O)cc2O)cc1` yielded an IC50 of 10 nM.
`Cc1cc2cc(F)ccc2nc1-c1ccc(N(Cc2cccnc2)C(=O)c2ccc(O)cc2O)cc1` was tested, and the IC50 was 100 nM.
